Data: the supplement of paper PMC3974653
Structures can show the parent of a compound that is named as a salt.

Each molecule was assayed on MTT (mouse pheochromocytoma) (assay: IC50 of cell viability (ATP content)). Conditions: (24 or 48 h).
How it was run: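 Library compounds in DMSO (23 nl by pintool, 8 concentrations, final 0.5 nM to 46 µM) were applied for 24 or 48 hrs to MTT mouse pheochromocytoma cells that had been cultured overnight at 37°C, 5% CO2 in white 1536-well plates. Cell viability was measured by CellTiter-Glo ATP luminescence, read after 15 minutes, with positive-control wells set at 100% and DMSO wells at 0%. A four-parameter logistic fit of the normalised signals yielded the IC50.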

| SMILES | IC50 of cell viability [µM] |
| --- | --- |
| C[S+](=O)([O-])O.O.O=C(O[C@@H]1C[C@@H]2C[C@@H]3C[C@H](C1)N2CC3=O)c1c[nH]c2ccccc12 [DOLASETRON MESYLATE] | > 46 |
| CC(C)(C)NC[C@H](O)COc1cccc2c1CCC(=O)N2 [Carteolol hydrochloride] | > 46 |
| CC(C)=CCC/C(C)=C/CO [GERANIOL] | > 46 |
| CCN(CC)CCOC(=O)c1cccnc1.O.O=C(O)CC(O)(CC(=O)O)C(=O)O [NICAMETATE CITRATE] | > 46 |
| CCOc1cc(-c2nccc3cc(OC)c(OC)cc23)cc(OCC)c1OCC [OCTAVERINUM] | > 46 |
| NC(=O)c1ccc[n+]([C@@H]2O[C@@H](CO[P@@](=O)([O-])O[P@@](=O)(O)OC[C@@H]3O[C@@H](n4cnc5c(N)ncnc54)[C@@H](O)[C@H]3O)[C@H](O)[C@@H]2O)c1 [Nadide] | > 46 |
| O=C(CN1CCNCC1)NC1CCCCC1 [Esaprazola] | > 46 |
| CNC1C(O)C(OC2C(N)CC(N)C(OC3OC(CN)=CCC3N)C2O)OCC1(C)O (stereo unspecified) [PENTISOMICINUM] | > 46 |
| OB(O)O [Boric acid] | > 46 |
| CN1C(=O)OC(C)(C)C1=O [Trimethadione] | > 46 |
| CN1CCC(O)(c2ccc(F)cc2)C(C(=O)c2ccc(F)cc2)C1 (stereo unspecified) [Flazalone] | > 46 |
| CC(=O)OCC(=O)[C@@]1(O)CCC2C3CCC/4=C/C(=O)/C=C\C4(C)C3C(O)C[C@@]12C (stereo partly specified) [PREDNISOLONE ACETATE] | > 46 |
| CC1=CC=CC(=C1N\C2=N\CCCS2)C [XYLAZINE] | > 46 |
| CC(N)Cc1ccc2c(c1)OCO2 (racemic) [(±)-3,4-Methylenedioxyamphetamine hydrochloride] | > 46 |
| CCC(=O)[O-] [Propionic acid] | > 46 |
| CCN(CC)CCc1c[nH]c2ccccc12 [N,N-Diethyltryptamine] | > 46 |
| CC12C=CC(=O)C=C1[C@@H](F)CC1C2C(O)CC2(C)C1CC[C@]2(O)C(=O)CO (stereo partly specified) [FLUPREDNISOLONE] | > 46 |
| S=C=S [Carbon disulfide] | > 46 |
| CN(C)CCN(Cc1ccccc1)c1ccccn1.O=C(O)CC(O)(CC(=O)O)C(=O)O [TRIPELENNAMINE CITRATE] | > 46 |
| O=C1CCCCC1CN1CCCCC1 (stereo unspecified) [Pimeclone] | > 46 |
| C=C(C)[C@H]1CN[C@H](C(=O)O)[C@H]1CC(=O)O [KAINIC ACID] | > 46 |

| SMILES | IC50 of cell viability [µM] |
| --- | --- |
| CCNC(C)Cc1cccc(C(F)(F)F)c1 (stereo unspecified) [DEXFENFLURAMINE] | > 46 |
| COc1ccc(CN2CCNCC2)c(OC)c1OC [Trimetazidine dihydrochloride] | > 46 |
| COc1cc(C)nc(-n2nc(C)cc2OC)n1 [Epirizole] | > 46 |
| N[C@@H]1CONC1=O [D-cycloserine] | > 46 |
| CO/N=C1/CC2(CC3CC(CC=C(C)CC(C)C=CC=C4COC5C(O)C(C)=CC(C(=O)O3)C45O)O2)OC(/C(C)=C/C(C)C)C1C (stereo unspecified) [Moxidectin] | > 46 |
| Nc1c[n+](N2CCOCC2)no1 [SIN-1 chloride] | > 46 |
| CN1C(=O)NC(=O)C(C)(C2=CCCCC2)C1=O (stereo unspecified) [HEXOBARBITAL] | > 46 |
| CC\12CCC(=O)\C=C1CCC3C2CCC4(C)C3CCC4(O)C#C (stereo unspecified) [ETHISTERONE] | > 46 |
| CC(C)(C)NC[C@H](O)CSc1nc(-c2ccc(C(N)=O)s2)cs1 [AROTINOLOL HYDROCHLORIDE] | > 46 |
| CN\1C(=O)C(=C(\N=C1C(C)(C)NC(=O)C2=NN=C(C)O2)C(=O)NCC3=CC=C(F)C=C3)/O [Raltegravir] | > 46 |
| CC(C)(C)c1cc(O)ccc1O [tert-Butylhydroquinone] | > 46 |
| CNCC(=O)c1ccc(O)c(O)c1 [Adrenone] | > 46 |
| C[N+](C)(C)CCOC(=O)C(O)(c1ccccc1)c1ccccc1 [METOCINII IODIDUM] | > 46 |
| CN1CC[C@@]23C4OC5=C(O)C=CC(=C25)C[C@@H]1C3\C=C/C4O (stereo partly specified) [Morphine] | > 46 |
| C[C@@H]1O[C@@H](OC[C@H]2O[C@@H](Oc3c(-c4ccc(O)c(O)c4)oc4cc(O)cc(O)c4c3=O)[C@H](O)[C@@H](O)[C@@H]2O)[C@H](O)[C@H](O)[C@H]1O [Rutin] | > 46 |
| O=C(O)[C@@H](O)[C@@H](O)[C@@H](O[C@@H]1O[C@@H](CO)[C@@H](O)[C@@H](O)[C@H]1O)[C@@H](O)CO [Lactobionic acid] | > 46 |
| Nc1c(Cl)c(Cl)c(Cl)c(Cl)c1Cl [Pentachloroaniline] | > 46 |
| CCN1CCC[C@H]1CNC(=O)c1c(O)c(Cl)cc(Cl)c1OC [S(-)-RACLOPRIDE] | > 46 |
| C[C@@H]\1C[C@@H]2[C@H]3CC[C@](O)(C(C)=O)[C@]3(C)C[C@H](O)[C@]2(F)[C@@]4(C)\C=C/C(=O)/C=C14 [Fluorometholone] | > 46 |
| Cc1cc2c(C(C)C)c(O)c(O)c(C=O)c2c(O)c1-c1c(C)cc2c(C(C)C)c(O)c(O)c(C=O)c2c1O [Gossypol] | > 46 |
| CCC1(c2ccccc2)C(=O)NC(=O)N(C)C1=O (stereo unspecified) [Mephobarbital] | > 46 |

More lines, now with the values ahead:

| IC50 of cell viability [µM] | SMILES |
| --- | --- |
| > 46 | C\C1=C\C(=O)OC2=CC(=CC=C12)OCC#C [GIPARMENUM] |
| > 46 | N=C(N)c1ccc(OCCCOc2ccc(C(=N)N)cc2)cc1 [Propamidine] |
| > 46 | CCOC(=O)\C1=C\[C@]2(CC)CCCN3CCC4=C([C@H]23)[N]1C5=C4C=CC=C5 [VINPOCETINE] |
| > 46 | O=C1C(CC[S+]([O-])c2ccccc2)C(=O)N(c2ccccc2)N1c1ccccc1 (stereo unspecified) [Sulfinpyrazone] |
| > 46 | CC(C(O)c1ccc(O)cc1)N1CCC(Cc2ccccc2)CC1 (stereo unspecified) [IFENPRODIL] |
| > 46 | O=C1CCC(c2ccccc2)(C2CCN(Cc3ccccc3)CC2)C(=O)N1 (stereo unspecified) [Benzetimidum] |
| > 46 | Cc1noc(N[S+](=O)([O-])c2ccc(N)cc2)c1C [Sulfisoxazole diolamine] |
| > 46 | CNCCCC1C2=C(C=CC=C2)\C=C/C3=C1C=CC=C3 [Protriptyline hydrochloride] |
| > 46 | CC(CCc1ccc(O)cc1)NCC(O)c1ccc(O)cc1 (stereo unspecified) [RACTOPAMINE HYDROCHLORIDE] |
| > 46 | CN(C)CCCSc1ccccc1NC(=O)/C=C/c1ccccc1 [CINANSERIN] |
| > 46 | Cc1cnc(C(=O)NCCc2ccc([S+](=O)([O-])NC(=O)NC3CCCCC3)cc2)cn1 [GLIPIZIDE] |
| > 46 | O=C(Nc1ccc([S+](=O)([O-])N2CCOCC2)cc1)c1cc(Cl)ccc1N[S+](=O)([O-])c1ccc(Cl)s1 [Ataciguat] |
| > 46 | Cc1c[nH]c2ccccc12 [SKATOLUM] |
| > 46 | Cc1cccc(C)c1OCC(=O)N[C@@H](Cc1ccccc1)[C@@H](O)C[C@H](Cc1ccccc1)NC(=O)[C@H](C(C)C)N1CCCNC1=O [LOPINAVIR] |
| > 46 | CC(C)C[C@H](NC(=O)[C@@H](O)[C@H](N)Cc1ccccc1)C(=O)O.Cl [Bestatin hydrochloride] |
| > 46 | OCC(O)CN1CCN(c2ccccc2)CC1 (stereo unspecified) [DROPROPIZINE] |
| > 46 | CO/N=C(/C(=O)N[C@@H]1C(=O)N2C(C(=O)O)=C(CSC(=O)c3ccco3)CSC12)c1csc(N)n1 (stereo partly specified) [CEFTIOFUR CRYSTALLINE FREE ACID] |
| > 46 | CC(C)NCC(O)COc1ccccc1-n1cccc1 (stereo unspecified) [ISAMOLTANE] |
| > 46 | CC(C)(C)NC[C@@H](O)COc1ccccc1C1CCCC1 [Penbutolol sulfate] |
| > 46 | Cc1cc(CC(=O)O)c(C)n1-c1ccc(Cl)cc1 [Clopirac] |
| > 46 | O=C(O)COC(=O)Cc1ccccc1Nc1c(Cl)cccc1Cl [Aceclofenac] |
| > 46 | CCC(=O)O[C@@H](OP(=O)(CCCCc1ccccc1)CC(=O)N1C[C@H](C2CCCCC2)C[C@H]1C(=O)[O-])C(C)C (stereo partly specified) [FOSINOPRIL SODIUM] |
| > 46 | O=C(O)c1cc(-c2ccc(F)cc2F)ccc1O [Diflunisal] |
| > 46 | CCCN(CCC)C(=O)C(CCC(=O)OCCCN1CCN(CCOC(=O)Cc2c(C)n(C(=O)c3ccc(Cl)cc3)c3ccc(OC)cc23)CC1)NC(=O)c1ccccc1 (stereo unspecified) [Proglumetacin maleate] |
| > 46 | COc1cc2c3cc1Oc1cc(ccc1O)C[C@@H]1c4c(cc(OC)c(O)c4Oc4ccc(cc4)C[C@@H]3N(C)CC2)CC[N+]1(C)C [(+)-TUBOCURARINE] |
| > 46 | CCCCc1ncc(/C=C(\Cc2cccs2)C(=O)O)n1Cc1ccc(C(=O)O)cc1 [Eprosartan mesylate] |
| > 46 | CC1(C)SC2C(NC(=O)C(c3ccccc3)S(=O)(=O)[O-])C(=O)N2C1C(=O)[O-] (stereo unspecified) [SULBENICILLIN DISODIUM] |
| > 46 | CC(C)Cn1cnc2c(N)nc3ccccc3c21 [Imiquimod] |
| > 46 | CCCCC(CC)COC(=O)/C=C/c1ccc(OC)cc1 (stereo unspecified) [Octinoxate] |
